Measured values published in US11866405B2, “Substituted indazoles as IRAK4 inhibitors” (AstraZeneca AB, priority 2020, dated 2024).

Experiments:
[1] = biological target: human recombinant IRAK4 protein (Homo sapiens (Human), UniProt Q9NWZ3); test: IRAK4 enzyme assay (mass spectrometry readout); format: biochemical; conditions: 3 mM ATP, 0.2 nM enzyme; geometric mean of at least n=2, * single experiment
Procedure: Potency of IRAK4 Inhibitor Compounds in IRAK4 Enzyme Assay
The inhibitory activity of compounds against IRAK4 were determined in an enzymatic assay using mass spectrometry readout. Ten point half-log compound concentration response curves, with a top concentration of 1 μM or 10 μM, were generated from 10 mM stocks of compound solubilized in DMSO using an Echo 655 (Labcyte Inc) and added to 384 well assay plates (Greiner #781280). To the assay plates, 10 μL of human recombinant IRAK4 protein (Life Technologies #PV4002) diluted to a final concentration of 0.2 nM in assay buffer (50 mM Tris-HCl pH 7.4, 10 mM MgCl, 5 mM glutathione, 0.01% BSA, 3 mM ATP) was added. The enzyme was incubated with the compounds at room temperature for 15 minutes before a peptide substrate ([…], Innovagen custom synthesis, 10 mM in DMSO) was added to each well to a final concentration of 10 μM using an Echo 655 (Labcyte Inc). After two hours at room temperature, the reaction was stopped with 90 μL of 0.4% formic acid (Merck #33015). The unphosphorylated and phosphorylated peptide were measured by LC-MS/MS on a Waters TQ-S mass spectrometer. Peaks were integrated using the TargetLynx software and the ratios between phosphorylated and unphosphorylated peptides were calculated. Curves were fitted and compound potencies determined in Genedata Screener 15 (Genedata AG). Data presented are the geometric mean of at least n=2, or as denoted by an * are obtained from a single experiment.

[2] = biological target: IRAK4 auto-phosphorylation (Homo sapiens (Human), UniProt Q9NWZ3); test: IRAK4 phosphorylation cell assay in IL-1β-stimulated Karpas-299 cells; format: cell-based; conditions: IL-1β 22.7 ng/mL, pIRAK4 (Thr345/Ser346), geometric mean of at least 2 experiments
IRAK4 auto-phosphorylation, sequence (Q9NWZ3 whole entry): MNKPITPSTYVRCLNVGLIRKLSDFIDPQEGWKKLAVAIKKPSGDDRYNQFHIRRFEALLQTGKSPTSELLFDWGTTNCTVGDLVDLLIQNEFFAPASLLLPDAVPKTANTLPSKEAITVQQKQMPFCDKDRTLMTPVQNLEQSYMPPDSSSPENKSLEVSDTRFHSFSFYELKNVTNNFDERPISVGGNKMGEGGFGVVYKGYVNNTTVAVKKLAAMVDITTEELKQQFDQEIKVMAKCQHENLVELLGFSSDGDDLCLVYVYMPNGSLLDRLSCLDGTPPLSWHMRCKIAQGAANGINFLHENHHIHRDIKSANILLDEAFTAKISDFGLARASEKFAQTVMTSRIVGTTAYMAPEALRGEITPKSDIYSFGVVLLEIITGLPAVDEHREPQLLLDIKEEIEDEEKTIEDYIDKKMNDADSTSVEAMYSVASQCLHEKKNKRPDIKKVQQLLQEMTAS
Procedure: IRAK4 Phosphorylation Cell Assay
The activation of IRAK4 by TLR or IL-1R ligands leads to IRAK4 auto-phosphorylation, which can be prevented by IRAK4 kinase inhibitors. The effect of IRAK4 inhibitor compounds on IRAK4 auto-phosphorylation was assessed in IL-1β-stimulated Karpas-299 cells as a measurement of cellular potency. Karpas-299 cells were cultured in RPMI 1640 (Gibco 61870-010) containing 10% FBS (Gibco #10270). Cells were plated at 2×10^4 cells per well in poly-D-lysine coated 384 well plates (Corning #356663) to which compounds had been added at various concentrations (10 point half log dose response with a final top concentration of 30 μM) using an Echo 655 (Labcyte Inc). Cells were centrifuged (250 g, 4 mins), incubated at 37° C. for 1 h, then stimulated with 22.7 ng/mL recombinant IL-1β (R&D Systems, #201-LB-025) at 37° C. for 10 mins, followed by fixation in 4% paraformaldehyde for 10 mins and permeabilization in ice-cold 70% MeOH for 30 mins. Cells were washed twice with phosphate-buffered saline (PBS) on a BlueWasher (BlueCatBio) then blocked with PBS containing 10% FBS for 20 mins. Blocking solution was removed with a BlueWasher and cells were stained with anti-pIRAK4 (Thr345/Ser346) (CST, #11927, 1:400) in blocking buffer with 0.05% Tween-20 for 1 h, then washed twice with PBS containing 0.05% Tween-20 on a BlueWasher, followed by staining with a Alexa 647-conjugated secondary anti-rabbit IgG antibody (CST, #4414, 1:2,000) and Hoechst 33342 (Sigma, 1:2,000) in blocking buffer with 0.05% Tween-20 for 30 mins. Finally, the cells were washed twice with PBS containing 0.05% Tween-20 and imaged on an ImageXpress Micro (Molecular Devices) with a 10× air objective using the appropriate filters. Images were analysed in Columbus (PerkinElmer) and the fluorescence intensity per cell from the secondary antibody was quantified. The quantified data were analysed in Genedata Screener 15 (Genedata AG). […] IC50 values are the geometric mean of at least 2 experiments.

human recombinant IRAK4 protein, sequence (Q9NWZ3 whole entry): as above

SMILES	IC50 [1] [µM]	IC50 [2] [µM]
CC1(O)CC2(CCC(n3cc4cc(C(=O)Nc5cnn6cccnc56)c(OC5CC5)cc4n3)CC2)C1 (single isomer, unassigned) [Example 15, 6-Cyclopropoxy-2-(2-hydroxy-2-methylspiro[3.5]nonan-7-yl)-N-(pyrazolo[1,5-a]pyrimidin-3-yl)-2H-indazole-5-carboxamide]	0.0005	0.091
CC1(O)CC2(CCC(n3cc4cc(C(=O)Nc5cnn6cccnc56)c(OC5CC5)cc4n3)CC2)C1 (single isomer, unassigned) [Example 16, 6-Cyclopropoxy-2-(2-hydroxy-2-methylspiro[3.5]nonan-7-yl)-N-(pyrazolo[1,5-a]pyrimidin-3-yl)-2H-indazole-5-carboxamide]	0.0006	0.077
CC(=O)N1CC2(CC[C@@H](n3cc4cc(C(=O)Nc5cnn6cccnc56)c(OC5CC5)cc4n3)[C@H](C)C2)C1 (single isomer, unassigned) [Example 28]	0.003	0.161
COc1cc2nn([C@H]3CCC(N(C)C(C)=O)C[C@@H]3C)cc2cc1C(=O)Nc1cnc2cccnn12 (single isomer, unassigned) [Example 35, N-(imidazo[1,2-b]pyridazin-3-yl)-6-methoxy-2-((1S,2S,4R*)-2-methyl-4-(N-methylacetamido)cyclohexyl)-2H-indazole-5-carboxamide]	0.0072	0.115
COc1cc2nn([C@@H]3CCC(N(C)C(C)=O)C[C@H]3C)cc2cc1C(=O)Nc1cnc2cccnn12 (single isomer, unassigned) [Example 36, N-(imidazo[1,2-b]pyridazin-3-yl)-6-methoxy-2-(1R,2R,4R*)-2-methyl-4-(N-methylacetamido)cyclohexyl)-2H-indazole-5-carboxamide]	0.0038	0.056
COc1cc2nn([C@H]3CC[C@H](O)C[C@@H]3C)cc2cc1C(=O)Nc1cnn2cccnc12 (single isomer, unassigned) [Example 39]	0.01	0.16
C[C@H]1C[C@@H](O)CC[C@@H]1n1cc2cc(C(=O)Nc3cnn4cccnc34)c(OC3CC3)cc2n1 (single isomer, unassigned) [Example 44]	0.0008	0.042
O=C(Nc1cnn2cccnc12)c1cc2cn(C3CCC4(CC3)CC(O)C4)nc2cc1OC1CC1 (single isomer, unassigned) [Example 46, 6-Cyclopropoxy-2-(2-hydroxyspiro[3.5]nonan-7-yl)-N-(pyrazolo[1,5-a]pyrimidin-3-yl)-2H-indazole-5-carboxamide]	0.0006	0.056
O=C(Nc1cnn2cccnc12)c1cc2cn(C3CCC4(CC3)CC(O)C4)nc2cc1OC1CC1 (single isomer, unassigned) [Example 47, 6-Cyclopropoxy-2-(2-hydroxyspiro[3.5]nonan-7-yl)-N-(pyrazolo[1,5-a]pyrimidin-3-yl)-2H-indazole-5-carboxamide]	0.0005	0.064
COc1cc2nn(C3CCC(C)(O)CC3)cc2cc1C(=O)Nc1cnc2cccnn12 (single isomer, unassigned) [Example 48, 2-(4-Hydroxy-4-methylcyclohexyl)-N-(imidazo[1,2-b]pyridazin-3-yl)-6-methoxy-2H-indazole-5-carboxamide]	0.0007	0.017
COc1cc2nn(C3CCC(C)(O)CC3)cc2cc1C(=O)Nc1cnc2cccnn12 (single isomer, unassigned) [Example 49, 2-(4-Hydroxy-4-methylcyclohexyl)-N-(imidazo[1,2-b]pyridazin-3-yl)-6-methoxy-2H-indazole-5-carboxamide]	0.0061	0.046
COc1cc2nn([C@H]3CCC[C@@](C)(O)C3)cc2cc1C(=O)Nc1cnn2cccnc12 (single isomer, unassigned) [Example 50]	0.0034	0.084
COc1cc2nn([C@H]3CCC[C@@](C)(O)C3)cc2cc1C(=O)Nc1cnn2cccnc12 (single isomer, unassigned) [Example 51]	0.0028	0.046
COc1cc2nn([C@H]3CCC[C@](C)(O)C3)cc2cc1C(=O)Nc1cnn2cccnc12 (single isomer, unassigned) [Example 52]	0.0055	0.096
COc1cc2nn([C@H]3CCC[C@](C)(O)C3)cc2cc1C(=O)Nc1cnn2cccnc12 (single isomer, unassigned) [Example 53]	0.0035	0.049
COc1cc2nn([C@@H]3CCC(N(C)C(C)=O)C[C@H]3C)cc2cc1C(=O)Nc1cnn2cccnc12 (single isomer, unassigned) [Example 60]	0.0008	0.021
COc1cc2nn([C@@H]3CCC(N(C)C(C)=O)C[C@H]3C)cc2cc1C(=O)Nc1cnn2cccnc12 (single isomer, unassigned) [Example 61]	0.0242	0.238
COc1cc2nn([C@H]3CCC(N(C)C(C)=O)C[C@@H]3C)cc2cc1C(=O)Nc1cnn2cccnc12 (single isomer, unassigned) [Example 62, 6-methoxy-2-((1S,2S,4R*)-2-methyl-4-(N-methylacetamido)cyclohexyl)-N-(pyrazolo[1,5-a]pyrimidin-3-yl)-2H-indazole-5-carboxamide]	0.016	0.185
COc1cc2nn([C@H]3CCC(N(C)C(C)=O)C[C@@H]3C)cc2cc1C(=O)Nc1cnn2cccnc12 (single isomer, unassigned) [Example 63, 6-methoxy-2-((1S,2S,4R*)-2-methyl-4-(N-methylacetamido)cyclohexyl)-N-(pyrazolo[1,5-a]pyrimidin-3-yl)-2H-indazole-5-carboxamide]	0.0468	0.338
COc1cc2nn(C3CCC4(CC3)COC(=O)N4C)cc2cc1C(=O)Nc1cnc2cccnn12 (single isomer, unassigned) [Example 74, N-(Imidazo[1,2-b]pyridazin-3-yl)-6-methoxy-2-(1-methyl-2-oxo-3-oxa-1-azaspiro[4.5]decan-8-yl)-2H-indazole-5-carboxamide]	0.0027	0.079
COc1cc2nn(C3CCC4(CC3)COC(=O)N4C)cc2cc1C(=O)Nc1cnc2cccnn12 (single isomer, unassigned) [Example 75, N-(Imidazo[1,2-b]pyridazin-3-yl)-6-methoxy-2-(1-methyl-2-oxo-3-oxa-1-azaspiro[4.5]decan-8-yl)-2H-indazole-5-carboxamide]	0.0003	0.012
COc1cc2nn([C@@H]3CC[C@H](O)[C@H](C)C3)cc2cc1C(=O)Nc1cnc2cccnn12 (single isomer, unassigned) [Example 77]	0.0007	0.014
COc1cc2nn([C@H]3CC[C@H](O)[C@H](C)C3)cc2cc1C(=O)Nc1cnc2cccnn12 (single isomer, unassigned) [Example 78]	0.0025	0.052
COc1cc2nn([C@H]3CC[C@H](O)[C@H](C)C3)cc2cc1C(=O)Nc1cnc2cccnn12 (single isomer, unassigned) [Example 79]	0.001	0.021
COc1cc2nn([C@H]3CC[C@H](O)[C@@H](C)C3)cc2cc1C(=O)Nc1cnc2cccnn12 (single isomer, unassigned) [Example 81]	0.0051	0.082
COc1cc2nn([C@@H]3CC[C@H](O)[C@@H](C)C3)cc2cc1C(=O)Nc1cnc2cccnn12 (single isomer, unassigned) [Example 82]	0.0024	0.027
